Patent publication EP4772186A1, “USE AND COMPOSITION OF POSTBIOTIC OF LACTOBACILLUS PARACASEI ET-22” (Inner Mongolia Yili Industrial Group Co., Ltd., priority 2023, dated 2025)

Test system: VSC concentration
Experiment: in vitro Halimeter determination of VSC concentration in saliva fermentation
Type: cell-based, halitosis subjects (saliva)
Conditions: compared with CK group, anaerobic cultivation 10 hours
Protocol: Fresh saliva was collected from 10 halitosis subjects (Halimeter index >120). Subjects were required not to consume any food or drink for 2 hours before donating saliva. Saliva was directly spat into a saliva collection tube, 5 ml per person, and mixed. The mixture was centrifuged at 4500 rpm for 10 minutes, and the supernatant was collected, aliquoted, and stored at -80°C for subsequent experimental studies.
(§1) Lysate observation group: In a 10 ml sample vial, 100 µl of saliva was added first, followed by the separate addition of ET-22 viable bacteria (1.0×10^9 CFU/ml), ET-22 heat-inactivated bacterial cells (obtained by inactivating viable bacteria at 1.0×10^9 CFU/ml), and lysate (obtained by inactivating and then filtering viable bacteria at 1.0×10^9 CFU/ml), each at 100µl. Then, 1.8 ml of SHI medium was added. After filling with nitrogen, anaerobic cultivation was performed for 10 hours. Then, the obtained culture was placed in a 60°C water bath for 30-min incubation. VSC concentration was measured using the in vitro Halimeter method.
(§2) Group of two nucleotides: In a 10 ml sample vial, 100 µl of saliva was added first, followed by the separate addition of ET-22 viable bacteria (1.0×10^9 CFU/ml), ET-22 heat-inactivated bacterial cells (obtained by inactivating viable bacteria at 1.0×10^9 CFU/ml), NAD, and FAD (500 µg/ml, 100 µg/ml, 10 µg/ml), each at 100µl. Then, 1.8 ml of SHI medium was added. After filling with nitrogen, anaerobic cultivation was performed for 10 hours. Then, the obtained culture was placed in a 60°C water bath for 30-min incubation. VSC concentration was measured using the in vitro Halimeter method.
as §2, with “five organic acids:” for “two nucleotides:”, “heat-inactivating” for “inactivating”, “CFU/ml),” for “CFU/ml), NAD,”, “five organic acid components” for “FAD”
as §2, with “Observation group” for “Group”, “four polypeptides:” for “two nucleotides:”, “heat-inactivating” for “inactivating”, “CFU/ml),” for “CFU/ml), NAD,”, “components of four polypeptides” for “FAD”
as §1, with “Peptidoglycan” for “Lysate observation”, “peptidoglycan (peptidoglycan extracted from” for “lysate (obtained by inactivating and then filtering”, “CFU/ml).” for “CFU/ml), each at 100µl.”, “method. […]” for “method.”

Measured: VSC concentration

Cc1cc2nc3c(=O)[nH]c(=O)nc-3n(C[C@H](O)[C@H](O)[C@H](O)COP(=O)(O)OP(=O)(O)OC[C@H]3O[C@@H](n4cnc5c(N)ncnc54)[C@H](O)[C@@H]3O)c2cc1C [FAD, Flavin adenine dinucleotide (FAD)]
no significant change: high concentration (500 µg/ml) | low concentration (10 µg/ml) | medium concentration (100 µg/ml)
